# Data published in patent EP3782997A1, “FUSED PYRIMIDINE COMPOUNDS AND PHARMACEUTICAL COMPOSITIONS THEREOF FOR THE TREATMENT OF FIBROTIC DISEASES” (Galapagos N.V., priority 2019, dated 2021).
# pIC50: −log10 of the molar value.
# Biological target: hENPP2 (Homo sapiens, UniProt Q13822)
# Assay: Human ENPP2 (hENPP2) biochemical assay using LPC as substrate
# Details: 150 µM LPC (palmitoyl 16:0), 37°C for 30 min
# Summary of the method: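 Enzyme at 1 or 3 µg/mL final in Tris-HCl pH 8.5, NaCl, KCl, CaCl2, fatty-acid-free BSA; reaction started with 150 µM LPC 16:0 (as added), 30 min at 37°C. Released choline developed with choline oxidase/peroxidase/TOOS/4-aminoantipyrine plus EGTA stop, read at 555 nm after 30 min; 1/3 dilutions from 50 µM give IC50.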
row,Compound,pIC50
1,"C[C@@H]1C[C@@H](N2Cc3cnc(Nc4ccc(S(F)(F)(F)(F)F)cc4)nc3C2)CCN1C(=O)c1cc2nn[nH]c2cc1F [compound 196, (6-fluoro-1H-benzotriazol-5-yl)-[(2R,4S)-2-methyl-4-[2-[4-(pentafluoro-λ^6-sulfanyl)anilino] -5,7-dihydropyrrolo[3,4-d]pyrimidin-6-yl]-1-piperidyl]methanone]",7.00 to 11.00
2,"COc1cc(F)cc(Nc2ncc3c(n2)CN([C@@H]2CCN(C(=O)c4cc5nn[nH]c5cc4F)[C@H](C)C2)C3)c1 [compound 197, (6-fluoro-1H-benzotriazol-5-yl)-[(2R,4R)-4-[2-(3-fluoro-5-methoxy-anilino)-5,7-dihydropyrrolo[3,4-d]pyrimidin-6-yl]-2-methyl-1-piperidyl] methanone]",7.00 to 11.00
3,"Cc1cc(C)cc(Nc2ncc3c(n2)CN([C@@H]2CCN(C(=O)c4ccnc(N)c4)[C@H](C)C2)C3)c1 [compound 198, (2-amino-4-pyridyl)-[(2R,4R)-4-[2-(3,5-dimethylanilino)-5,7-dihydropyrrolo[3,4-d]pyrimidin-6-yl]-2-methyl-1-piperidyl]methanone]",< 6.00
4,"Cc1cc(C)cc(Nc2ncc3c(n2)CCN(C2CCN(C(=O)C4CCN(c5cc6nn[nH]c6cc5C)CC4)CC2)C3)c1 [compound 199, [4-[2-(3,5-dimethylanilino)-7,8-dihydro-5H-pyrido[4,3-d]pyrimidin-6-yl]-1-piperidyl]-[1-(6-methyl-1H-benzotriazol-5-yl)-4-piperidyl]methanone]",< 6.00
5,"COc1cc(Nc2ncc3c(n2)CN([C@@H]2CCN(C(=O)c4ccnc(NS(C)(=O)=O)c4)[C@H](C)C2)C3)cc(OC)c1 [compound 200, N-[4-[(2R,4R)-4-[2-(3,5-dimethoxyanilino)-5,7-dihydropyrrolo[3,4-d]pyrimidin-6-yl]-2-methyl-piperidine-1-carbonyl]-2-pyridyl]methanesulfonamide]",7.00 to 11.00
6,"CS(=O)(=O)Nc1cc(C(=O)N2CCC(N3Cc4cnc(Nc5ccc(C(F)(F)F)cc5)nc4C3)CC2)ccn1 [compound 201, N-[4-[4-[2-[4-(trifluoromethyl)anilino]-5,7-dihydropyrrolo[3,4-d]pyrimidin-6-yl]piperidine-1-carbonyl]-2-pyridyl]methanesulfonamide]",7.00 to 11.00
7,"Cc1cc(C)cc(Nc2ncc3c(n2)CN(C2CCN(C(=O)c4ccnc(NS(C)(=O)=O)c4)CC2)C3)c1 [compound 202, N-[4-[4-[2-(3,5-dimethylanilino)-5,7-dihydropyrrolo[3,4-d]pyrimidin-6-yl]piperidine-1-carbonyl]-2-pyridyl]methanesulfonamide]",7.00 to 11.00
8,"Cc1cccc(Nc2ncc3c(n2)CN([C@@H]2CCN(C(=O)c4ccnc(NS(C)(=O)=O)c4)[C@H](C)C2)C3)c1 [compound 203, N-[4-[(2R,4R)-2-methyl-4-[2-(3-methylanilino)-5,7-dihydropyrrolo[3,4-d]pyrimidin-6-yl]piperidine-1-carbonyl]-2-pyridyl]methanesulfonamide]",7.00 to 11.00
9,"COc1cc(F)cc(Nc2ncc3c(n2)CN([C@@H]2CCN(C(=O)c4ccnc(NS(C)(=O)=O)c4)[C@H](C)C2)C3)c1 [compound 204, N-[4-[(2R,4R)-4-[2-(3-fluoro-5-methoxy-anilino)-5,7-dihydropyrrolo[3,4-d]pyrimidin-6-yl] -2-methyl-piperidine-1-carbonyl]-2-pyridyl]methanesulfonamide]",6.30 to 7.00
10,"C[C@@H]1C[C@H](N2Cc3cnc(Nc4ccc(OC(F)(F)F)cc4)nc3C2)CCN1C(=O)c1ccnc(NS(C)(=O)=O)c1 [compound 205, N-[4-[(2R,4R)-2-methyl-4-[2-[4-(trifluoromethoxy)anilino]-5,7-dihydropyrrolo[3,4-d]pyrimidin-6-yl]piperidine-1-carbonyl]-2-pyridyl]methanesulfonamide]",7.00 to 11.00
11,"Cc1cc(C)cc(Nc2ncc3c(n2)CN([C@@H]2CCN(C(=O)c4cccc(NS(C)(=O)=O)c4)[C@H](C)C2)C3)c1 [compound 206, N-[3-[(2R,4R)-4-[2-(3,5-dimethylanilino)-5,7-dihydropyrrolo[3,4-d]pyrimidin-6-yl]-2-methyl-piperidine-1-carbonyl]phenyl]methanesulfonamide]",< 6.00
12,"Cc1cc(Nc2ncc3c(n2)CN([C@@H]2CCN(C(=O)c4ccnc(NS(C)(=O)=O)c4)[C@H](C)C2)C3)ccc1F [compound 207, N-[4-[(2R,4R)-4-[2-(4-fluoro-3-methyl-anilino)-5,7-dihydropyrrolo[3,4-d]pyrimidin-6-yl]-2-methyl-piperidine-1-carbonyl]-2-pyridyl]methanesulfonamide]",7.00 to 11.00
13,"Cc1cc(C)cc(Nc2ncc3c(n2)CN([C@@H]2CCN(C(=O)c4cc(NS(C)(=O)=O)ncc4F)[C@H](C)C2)C3)c1 [compound 208, N-[4-[(2R,4R)-4-[2-(3,5-dimethylanilino)-5,7-dihydropyrrolo[3,4-d]pyrimidin-6-yl]-2-methyl-piperidine-1-carbonyl]-5-fluoro-2-pyridyl]methanesulfonamide]",7.00 to 11.00
14,"CC(=O)Nc1cc(C(=O)N2CC[C@@H](N3Cc4cnc(Nc5cc(C)cc(C)c5)nc4C3)C[C@H]2C)ccn1 [compound 209, N-[4-[(2R,4R)-4-[2-(3,5-dimethylanilino)-5,7-dihydropyrrolo[3,4-d]pyrimidin-6-yl]-2-methyl-piperidine-1-carbonyl]-2-pyridyl]acetamide]",6.00 to 6.30
15,"CCS(=O)(=O)Nc1cc(C(=O)N2CC[C@@H](N3Cc4cnc(Nc5cc(C)cc(C)c5)nc4C3)C[C@H]2C)ccn1 [compound 210, N-[4-[(2R,4R)-4-[2-(3,5-dimethylanilino)-5,7-dihydropyrrolo[3,4-d]pyrimidin-6-yl]-2-methyl-piperidine-1-carbonyl]-2-pyridyl]ethanesulfonamide]",7.00 to 11.00
16,"Cc1cc(C)cc(Nc2ncc3c(n2)CN([C@@H]2CCN(C(=O)c4cncc(NS(C)(=O)=O)c4)[C@H](C)C2)C3)c1 [compound 211, N-[5-[(2R,4R)-4-[2-(3,5-dimethylanilino)-5,7-dihydropyrrolo[3,4-d]pyrimidin-6-yl]-2-methyl-piperidine-1-carbonyl]-3-pyridyl]methanesulfonamide]",< 6.00
17,"Cc1cc(C)cc(Nc2ncc3c(n2)CN([C@@H]2CCN(C(=O)c4ccnc(NS(=O)(=O)C(F)(F)F)c4)[C@H](C)C2)C3)c1 [compound 212, N-[4-[(2R,4R)-4-[2-(3,5-dimethylanilino)-5,7-dihydropyrrolo[3,4-d]pyrimidin-6-yl]-2-methyl-piperidine-1-carbonyl]-2-pyridyl]-1,1,1-trifluoro-methanesulfonamide]",6.30 to 7.00
18,"C[C@@H]1C[C@H](N2Cc3cnc(Nc4cc(F)cc(Cl)c4)nc3C2)CCN1C(=O)c1ccnc(NS(C)(=O)=O)c1 [compound 213, N-[4-[(2R,4R)-4-[2-(3-chloro-5-fluoro-anilino)-5,7-dihydropyrrolo[3,4-d]pyrimidin-6-yl]-2-methyl-piperidine-1-carbonyl]-2-pyridyl]methanesulfonamide]",7.00 to 11.00
19,"C[C@@H]1C[C@@H](N2Cc3cnc(Nc4cc(F)cc(Cl)c4)nc3C2)CCN1C(=O)c1ccnc(NS(C)(=O)=O)c1 [compound 214, N-[4-[(2R,4S)-4-[2-(3-chloro-5-fluoro-anilino)-5,7-dihydropyrrolo[3,4-d]pyrimidin-6-yl]-2-methyl-piperidine-1-carbonyl]-2-pyridyl]methanesulfonamide]",6.30 to 7.00
20,"Cc1cc(Nc2ncc3c(n2)CN([C@@H]2CCN(C(=O)c4ccnc(NS(C)(=O)=O)c4)[C@H](C)C2)C3)ccc1C(F)(F)F [compound 215, N-[4-[(2R,4R)-2-methyl-4-[2-[3-methyl-4-(trifluoromethyl)anilino]-5,7-dihydropyrrolo[3,4-d]pyrimidin-6-yl]piperidine-1-carbonyl]-2-pyridyl]methanesulfonamide]",7.00 to 11.00
21,"Cc1cc(Nc2ncc3c(n2)CN([C@H]2CCN(C(=O)c4ccnc(NS(C)(=O)=O)c4)[C@H](C)C2)C3)ccc1C(F)(F)F [compound 216, N-[4-[(2R,4S)-2-methyl-4-[2-[3-methyl-4-(trifluoromethyl)anilino]-5,7-dihydropyrrolo[3,4-d]pyrimidin-6-yl]piperidine-1-carbonyl]-2-pyridyl]methanesulfonamide]",7.00 to 11.00
22,"COc1cc(Nc2ncc3c(n2)CN([C@@H]2CCN(C(=O)c4ccnc(NS(C)(=O)=O)c4)[C@H](C)C2)C3)ccc1Cl [compound 217, N-[4-[(2R,4R)-4-[2-(4-chloro-3-methoxy-anilino)-5,7-dihydropyrrolo[3,4-d]pyrimidin-6-yl]-2-methyl-piperidine-1-carbonyl]-2-pyridyl]methanesulfonamide]",7.00 to 11.00
23,"Cc1cc(C)cc(Nc2ncc3c(n2)CN([C@@H]2CCN(C(=O)c4cc(NS(C)(=O)=O)ncc4C)[C@H](C)C2)C3)c1 [compound 218, N-[4-[(2R,4R)-4-[2-(3,5-dimethylanilino)-5,7-dihydropyrrolo[3,4-d]pyrimidin-6-yl]-2-methyl-piperidine-1-carbonyl]-5-methyl-2-pyridyl]methanesulfonamide]",7.00 to 11.00
24,"C[C@@H]1C[C@@H](N2Cc3cnc(Nc4cccc(OC5CC5)c4)nc3C2)CCN1C(=O)c1ccnc(NS(C)(=O)=O)c1 [compound 219, N-[4-[(2R,4S)-4-[2-[3-(cyclopropoxy)anilino]-5,7-dihydropyrrolo[3,4-d]pyrimidin-6-yl]-2-methyl-piperidine-1-carbonyl]-2-pyridyl]methanesulfonamide]",6.30 to 7.00
